Test results from ChEMBL document CHEMBL1641458, “A journey from benzanilides to dithiobenzanilides: Synthesis of selective spasmolytic compounds” (Bioorg Med Chem, 2011).

Experiments:
Aorta = assay: tissue or blood; assay type: functional, tissue-based; settings: Cavia porcellus, 0.75 h
[1] = Antispasmodic activity in guinea pig arteria pulmonalis ring assessed as inhibition of 60 mM KCl-induced contraction after 45 mins; assay type: functional, Cavia porcellus
Ileum = assay: tissue or blood; assay type: functional, tissue-based; settings: Cavia porcellus, 0.75 h

- IC50 (Aorta): > 100 µM
- IC50 [1]: > 100 µM
- IC50 (Ileum): > 100 µM
Structure (SMILES): COc1cc(C(=S)Nc2cccc(NC(=S)c3cc(OC)c(OC)c(OC)c3)c2)cc(OC)c1OC
